Reference: ChEMBL document CHEMBL1201862, “PubChem BioAssay data set” (2004)
Values belong to the compound of their own block, whether it stands above or below them. Calls of active or inactive are those of the source.

Experiments:
[1] = target: T1, Serine/threonine-protein phosphatase (Candida dubliniensis (strain CD36 / CBS 7987 / NCPF 3949 / NRRLY-17841) (Yeast), UniProt B9W6M3); assay: calcineurin pathway inhibitors in yeast reporter, dose response, S. cerevisiae, CDRE-lacZ, luminescence, secondary (AID 2388); assay type: functional, cell-based;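 further: yeast reporter cells carrying a calcineurin-responsive lacZ construct stimulated with calcium chloride; luminescent beta-galactosidase reporter signal in whole cells rather than isolated phosphatase activity; potency for inhibition where a drop in reporter signal means calcineurin blockade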
T1 sequence (B9W6M3 whole entry): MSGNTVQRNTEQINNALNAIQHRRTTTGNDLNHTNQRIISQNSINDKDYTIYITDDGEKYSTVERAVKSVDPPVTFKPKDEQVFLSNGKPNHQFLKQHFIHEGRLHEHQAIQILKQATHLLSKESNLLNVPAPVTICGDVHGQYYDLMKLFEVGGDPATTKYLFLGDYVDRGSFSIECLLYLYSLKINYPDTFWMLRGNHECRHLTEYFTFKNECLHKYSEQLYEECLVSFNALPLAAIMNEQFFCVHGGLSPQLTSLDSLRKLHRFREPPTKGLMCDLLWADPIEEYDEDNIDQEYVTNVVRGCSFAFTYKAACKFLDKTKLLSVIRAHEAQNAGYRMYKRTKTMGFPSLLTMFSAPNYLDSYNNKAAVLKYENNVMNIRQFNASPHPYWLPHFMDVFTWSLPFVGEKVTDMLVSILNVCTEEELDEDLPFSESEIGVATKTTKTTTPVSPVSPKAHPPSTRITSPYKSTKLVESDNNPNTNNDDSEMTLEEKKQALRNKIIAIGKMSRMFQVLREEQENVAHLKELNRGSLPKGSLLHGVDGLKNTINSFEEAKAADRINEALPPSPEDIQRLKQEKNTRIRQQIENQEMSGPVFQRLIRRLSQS

[2] = target: Mast/stem cell growth factor receptor Kit (Homo sapiens, UniProt P10721); assay type: functional;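 further: KIT entry within a kinase panel assay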
[3] = target: High affinity nerve growth factor receptor (Homo sapiens, UniProt P04629); assay type: functional;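 further: NTRK1 tested as one member of a kinome-wide profiling panel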
SRSF protein kinase 1 = SRSF protein kinase 1 (Homo sapiens, UniProt Q96SB4); assay type: functional;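 further: measured as one member of a kinome-wide kinase profiling panel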
Sequence of SRSF protein kinase 1 (Q96SB4 whole entry): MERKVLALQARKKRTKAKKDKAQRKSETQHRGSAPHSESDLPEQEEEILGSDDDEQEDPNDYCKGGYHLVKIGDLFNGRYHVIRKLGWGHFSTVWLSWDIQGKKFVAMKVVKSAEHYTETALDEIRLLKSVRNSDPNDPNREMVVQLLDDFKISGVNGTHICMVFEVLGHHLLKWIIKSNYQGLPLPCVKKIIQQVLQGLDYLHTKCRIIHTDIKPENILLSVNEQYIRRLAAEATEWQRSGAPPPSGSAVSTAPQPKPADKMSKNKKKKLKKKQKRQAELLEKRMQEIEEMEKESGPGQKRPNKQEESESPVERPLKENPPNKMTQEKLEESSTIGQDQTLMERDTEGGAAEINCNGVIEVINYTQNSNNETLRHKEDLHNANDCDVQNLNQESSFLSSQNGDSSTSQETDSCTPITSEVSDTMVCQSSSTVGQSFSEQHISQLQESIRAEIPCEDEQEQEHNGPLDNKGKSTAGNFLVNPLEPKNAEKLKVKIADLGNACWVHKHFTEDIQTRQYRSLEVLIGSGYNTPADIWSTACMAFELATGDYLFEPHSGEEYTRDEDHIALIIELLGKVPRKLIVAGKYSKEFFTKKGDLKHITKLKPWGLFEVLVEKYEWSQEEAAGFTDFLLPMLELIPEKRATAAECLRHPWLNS

[4] = target: Serine/threonine-protein kinase TAO1 (Homo sapiens, UniProt Q7L7X3); assay type: functional
[5] = target: Mitogen-activated protein kinase kinase kinase kinase 4 (Homo sapiens, UniProt O95819); assay type: functional
[6] = target: Non-receptor tyrosine-protein kinase TYK2 (Homo sapiens, UniProt P29597); assay type: functional
Sequence of Non-receptor tyrosine-protein kinase TYK2 (P29597 whole entry): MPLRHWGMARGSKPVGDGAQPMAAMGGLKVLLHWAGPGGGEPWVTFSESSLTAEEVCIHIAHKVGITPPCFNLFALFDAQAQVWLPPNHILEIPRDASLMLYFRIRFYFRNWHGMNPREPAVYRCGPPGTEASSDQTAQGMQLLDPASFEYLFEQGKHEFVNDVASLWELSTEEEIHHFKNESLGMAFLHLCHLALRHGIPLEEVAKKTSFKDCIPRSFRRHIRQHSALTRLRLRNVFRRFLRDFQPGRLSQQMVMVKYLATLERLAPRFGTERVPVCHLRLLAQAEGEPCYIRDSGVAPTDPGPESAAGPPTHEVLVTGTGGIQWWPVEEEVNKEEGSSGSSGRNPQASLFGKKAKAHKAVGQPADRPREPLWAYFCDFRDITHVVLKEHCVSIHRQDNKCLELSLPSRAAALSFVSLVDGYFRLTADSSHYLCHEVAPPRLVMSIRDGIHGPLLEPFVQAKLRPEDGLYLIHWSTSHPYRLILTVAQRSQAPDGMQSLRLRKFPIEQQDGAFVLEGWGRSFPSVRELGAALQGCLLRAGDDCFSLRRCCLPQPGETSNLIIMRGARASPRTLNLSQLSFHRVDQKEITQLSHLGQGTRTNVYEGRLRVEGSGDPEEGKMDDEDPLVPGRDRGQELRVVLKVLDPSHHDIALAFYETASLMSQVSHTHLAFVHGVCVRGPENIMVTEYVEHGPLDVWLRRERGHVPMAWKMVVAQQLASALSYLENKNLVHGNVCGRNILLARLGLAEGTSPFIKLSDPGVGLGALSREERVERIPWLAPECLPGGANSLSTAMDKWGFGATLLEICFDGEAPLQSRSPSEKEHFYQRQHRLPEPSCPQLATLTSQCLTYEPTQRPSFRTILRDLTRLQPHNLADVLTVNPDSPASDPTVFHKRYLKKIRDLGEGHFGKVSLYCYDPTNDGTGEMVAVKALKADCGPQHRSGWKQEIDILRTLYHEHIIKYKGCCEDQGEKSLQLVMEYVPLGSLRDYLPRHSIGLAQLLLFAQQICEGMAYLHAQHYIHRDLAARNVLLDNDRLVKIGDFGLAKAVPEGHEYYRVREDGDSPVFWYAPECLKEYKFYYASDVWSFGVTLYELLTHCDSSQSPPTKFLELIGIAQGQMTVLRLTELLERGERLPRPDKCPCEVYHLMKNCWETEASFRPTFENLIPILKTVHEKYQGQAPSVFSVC

[7] = target: Macrophage colony-stimulating factor 1 receptor (Homo sapiens, UniProt P07333); assay type: functional;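 further: value comes from the Navigating the Kinome screening panel, CSF1R member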
[8] = target: Tyrosine-protein kinase Srms (Homo sapiens, UniProt Q9H3Y6); assay type: functional;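 further: SRMS measured as one member of a kinome-wide kinase profiling panel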
[9] = target: Phosphorylase b kinase gamma catalytic chain, liver/testis isoform (Homo sapiens, UniProt P15735); assay type: functional;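 further: PHKG2 measured as one member of a kinome-wide kinase panel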
Sequence of Phosphorylase b kinase gamma catalytic chain, liver/testis isoform (P15735 whole entry, canonical isoform): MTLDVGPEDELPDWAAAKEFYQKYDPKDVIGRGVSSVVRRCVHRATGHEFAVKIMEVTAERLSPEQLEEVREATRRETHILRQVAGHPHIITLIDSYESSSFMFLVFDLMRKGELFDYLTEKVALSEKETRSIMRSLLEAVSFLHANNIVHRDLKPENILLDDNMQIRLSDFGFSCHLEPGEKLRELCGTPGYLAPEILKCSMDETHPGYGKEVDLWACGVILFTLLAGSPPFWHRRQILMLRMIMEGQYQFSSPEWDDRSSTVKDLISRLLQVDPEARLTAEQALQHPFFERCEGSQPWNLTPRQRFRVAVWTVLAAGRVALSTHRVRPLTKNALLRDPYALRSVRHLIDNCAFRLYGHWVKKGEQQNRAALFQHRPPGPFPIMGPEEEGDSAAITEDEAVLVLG

[10] = target: Calcium/calmodulin-dependent protein kinase type II subunit beta (Homo sapiens, UniProt Q13554); assay type: functional
[11] = target: Testis-specific serine/threonine-protein kinase 2 (Homo sapiens, UniProt Q96PF2); assay type: functional;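 further: part of the Navigating the Kinome panel, target entry STK22B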
[12] = target: Megakaryocyte-associated tyrosine-protein kinase (Homo sapiens, UniProt P42679); assay type: functional;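 further: affinity measured as one member of a kinase panel (Navigating the Kinome) against MATK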
[13] = target: Vascular endothelial growth factor receptor 2 (Homo sapiens, UniProt P35968); assay type: functional
[14] = target: Proto-oncogene tyrosine-protein kinase ROS (Homo sapiens, UniProt P08922); assay type: functional;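 further: ROS1 tested as one member of a kinome-wide kinase panel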
Sequence of Proto-oncogene tyrosine-protein kinase ROS (P08922 whole entry): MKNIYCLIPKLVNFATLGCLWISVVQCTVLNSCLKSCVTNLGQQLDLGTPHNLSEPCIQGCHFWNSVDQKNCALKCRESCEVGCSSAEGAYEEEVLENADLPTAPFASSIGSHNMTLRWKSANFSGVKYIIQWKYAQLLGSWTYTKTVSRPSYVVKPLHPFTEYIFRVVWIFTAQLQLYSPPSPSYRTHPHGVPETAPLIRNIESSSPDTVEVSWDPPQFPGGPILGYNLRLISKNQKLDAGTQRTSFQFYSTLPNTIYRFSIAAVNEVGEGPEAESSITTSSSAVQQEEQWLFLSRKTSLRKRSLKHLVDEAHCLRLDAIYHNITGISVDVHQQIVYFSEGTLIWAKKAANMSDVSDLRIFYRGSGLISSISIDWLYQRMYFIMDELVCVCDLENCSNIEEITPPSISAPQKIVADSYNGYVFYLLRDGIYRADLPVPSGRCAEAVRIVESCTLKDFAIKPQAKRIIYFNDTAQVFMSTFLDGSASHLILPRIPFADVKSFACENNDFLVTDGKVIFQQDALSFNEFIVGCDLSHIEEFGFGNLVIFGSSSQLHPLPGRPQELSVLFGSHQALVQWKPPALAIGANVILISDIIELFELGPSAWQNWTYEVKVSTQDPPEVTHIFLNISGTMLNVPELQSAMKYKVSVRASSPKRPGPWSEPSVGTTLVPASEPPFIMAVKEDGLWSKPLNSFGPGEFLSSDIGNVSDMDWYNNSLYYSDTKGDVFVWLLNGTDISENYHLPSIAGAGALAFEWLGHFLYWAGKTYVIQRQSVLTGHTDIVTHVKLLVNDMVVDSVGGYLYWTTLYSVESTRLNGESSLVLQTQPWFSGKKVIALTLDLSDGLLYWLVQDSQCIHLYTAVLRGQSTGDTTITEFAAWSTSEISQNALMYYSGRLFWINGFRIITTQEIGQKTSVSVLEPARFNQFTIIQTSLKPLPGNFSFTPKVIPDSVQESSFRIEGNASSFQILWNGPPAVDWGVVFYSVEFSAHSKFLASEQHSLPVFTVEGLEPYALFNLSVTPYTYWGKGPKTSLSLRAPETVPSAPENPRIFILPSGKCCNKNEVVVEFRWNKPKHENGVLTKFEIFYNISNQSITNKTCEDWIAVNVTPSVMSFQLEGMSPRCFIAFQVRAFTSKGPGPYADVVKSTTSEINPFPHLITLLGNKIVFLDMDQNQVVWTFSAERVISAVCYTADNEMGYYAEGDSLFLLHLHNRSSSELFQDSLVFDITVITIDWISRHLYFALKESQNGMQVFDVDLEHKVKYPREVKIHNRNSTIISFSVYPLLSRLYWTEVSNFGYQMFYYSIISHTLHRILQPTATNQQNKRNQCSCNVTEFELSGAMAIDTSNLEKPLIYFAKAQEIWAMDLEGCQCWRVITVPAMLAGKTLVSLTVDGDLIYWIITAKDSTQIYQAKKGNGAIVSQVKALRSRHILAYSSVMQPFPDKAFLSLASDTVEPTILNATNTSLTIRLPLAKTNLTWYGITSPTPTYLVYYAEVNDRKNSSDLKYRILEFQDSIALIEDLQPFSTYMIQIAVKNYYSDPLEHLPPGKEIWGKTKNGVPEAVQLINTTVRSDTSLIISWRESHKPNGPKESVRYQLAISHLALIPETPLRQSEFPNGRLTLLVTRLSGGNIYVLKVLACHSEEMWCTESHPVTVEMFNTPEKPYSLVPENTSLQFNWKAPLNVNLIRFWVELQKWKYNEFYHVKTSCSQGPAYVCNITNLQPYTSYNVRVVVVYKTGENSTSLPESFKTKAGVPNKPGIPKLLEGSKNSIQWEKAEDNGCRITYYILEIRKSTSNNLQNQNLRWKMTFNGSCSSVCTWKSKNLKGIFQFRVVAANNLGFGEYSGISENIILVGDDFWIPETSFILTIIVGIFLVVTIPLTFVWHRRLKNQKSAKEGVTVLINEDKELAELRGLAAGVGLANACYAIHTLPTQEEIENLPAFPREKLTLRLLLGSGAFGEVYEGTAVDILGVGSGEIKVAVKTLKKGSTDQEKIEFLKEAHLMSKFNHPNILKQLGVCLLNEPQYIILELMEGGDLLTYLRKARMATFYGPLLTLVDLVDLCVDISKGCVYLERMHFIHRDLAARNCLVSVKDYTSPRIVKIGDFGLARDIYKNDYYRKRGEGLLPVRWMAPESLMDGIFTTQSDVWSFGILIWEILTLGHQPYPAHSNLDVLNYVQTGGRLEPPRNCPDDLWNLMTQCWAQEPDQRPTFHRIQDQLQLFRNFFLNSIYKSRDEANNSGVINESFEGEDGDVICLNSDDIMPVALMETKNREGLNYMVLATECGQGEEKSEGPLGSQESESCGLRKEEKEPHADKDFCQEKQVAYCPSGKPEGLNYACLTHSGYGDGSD

[15] = target: MAP kinase-activated protein kinase 5 (Homo sapiens, UniProt Q8IW41); assay type: functional;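 further: measured as one member of a kinome panel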
Sequence of MAP kinase-activated protein kinase 5 (Q8IW41 whole entry): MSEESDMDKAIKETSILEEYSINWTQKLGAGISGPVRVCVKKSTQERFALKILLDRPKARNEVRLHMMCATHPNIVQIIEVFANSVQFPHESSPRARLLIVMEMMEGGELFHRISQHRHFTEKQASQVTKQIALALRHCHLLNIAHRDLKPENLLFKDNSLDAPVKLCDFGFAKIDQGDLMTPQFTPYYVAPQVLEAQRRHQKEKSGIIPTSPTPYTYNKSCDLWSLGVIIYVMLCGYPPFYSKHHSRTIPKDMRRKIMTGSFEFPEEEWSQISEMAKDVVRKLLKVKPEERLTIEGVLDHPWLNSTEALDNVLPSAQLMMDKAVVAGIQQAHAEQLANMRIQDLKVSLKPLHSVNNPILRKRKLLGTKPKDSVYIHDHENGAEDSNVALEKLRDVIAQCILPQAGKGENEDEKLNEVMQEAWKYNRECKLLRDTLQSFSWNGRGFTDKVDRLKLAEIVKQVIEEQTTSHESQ

[16] = target: cAMP-dependent protein kinase catalytic subunit alpha (Homo sapiens, UniProt P17612); assay type: functional
[17] = target: cGMP-dependent protein kinase 1 (Homo sapiens, UniProt Q13976); assay type: functional;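 further: value from a kinome panel screen with PRKG1 as the panel member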
[18] = target: Mitogen-activated protein kinase kinase kinase kinase 2 (Homo sapiens, UniProt Q12851); assay type: functional;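 further: measured as one member of a kinome-wide kinase panel, with MAP4K2 as the panel entry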
[19] = target: Serine/threonine-protein kinase pim-2 (Homo sapiens, UniProt Q9P1W9); assay type: functional;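 further: value comes from a broad kinase panel profiling study in which PIM2 was one of the panel members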
[20] = target: Serine/threonine-protein kinase N2 (Homo sapiens, UniProt Q16513); assay type: functional
[21] = target: Tyrosine-protein kinase Blk (Homo sapiens, UniProt P51451); assay type: functional;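 further: obtained as one member of a kinome-wide kinase assay panel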
[22] = target: Receptor-type tyrosine-protein kinase FLT3 (Homo sapiens, UniProt P36888); assay type: functional;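 further: FLT3 was tested as one member of a kinome-wide kinase panel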
[23] = target: Cyclin-dependent kinase 1 (Homo sapiens, UniProt P06493); assay type: functional;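 further: Kinome-wide panel profiling, with the target listed as panel member CDC2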
[24] = target: Calcium/calmodulin-dependent protein kinase type 1 (Homo sapiens, UniProt Q14012); assay type: functional
[25] = target: Tyrosine-protein kinase FRK (Homo sapiens, UniProt P42685); assay type: functional;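 further: FRK tested as one member of a kinome panel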
[26] = target: Tyrosine-protein kinase ABL1 (Homo sapiens, UniProt P00519); assay type: functional
[27] = target: Vascular endothelial growth factor receptor 3 (Homo sapiens, UniProt P35916); assay type: functional;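 further: value from a kinome-wide profiling panel, with FLT4 as the panel member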
[28] = target: cAMP-dependent protein kinase catalytic subunit PRKX (Homo sapiens, UniProt P51817); assay type: functional
[29] = target: Lymphokine-activated killer T-cell-originated protein kinase (Homo sapiens, UniProt Q96KB5); assay type: functional;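 further: value comes from a kinase panel screen in which TOPK was one of the panel members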
[30] = target: Tyrosine-protein kinase Fer (Homo sapiens, UniProt P16591); assay type: functional;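 further: FER tested as one member of a kinome panel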

SMILES: COc1ccc(-c2nnc(NC(=O)c3ccc(F)cc3)o2)cc1
EC50 [1]: > 180000 nM (inactive)

Ki [2]: > 1260 nM (inactive)
Ki [3]: > 2510 nM (inactive)
Ki (SRSF protein kinase 1): 7940 nM (active)
Ki [4]: > 10000 nM (inactive)
Ki [5]: > 10000 nM (inactive)
Ki [6]: > 2000 nM (inactive)
Ki [7]: > 2510 nM (inactive)
Ki [8]: > 1580 nM (inactive)
Ki [9]: > 5010 nM (inactive)
Ki [10]: 7940 nM (active)
Ki [11]: > 1580 nM (inactive)
Ki [12]: > 2000 nM (inactive)
Ki [13]: > 7940 nM (inactive)
Ki [14]: > 2000 nM (inactive)
Ki [15]: > 1580 nM (inactive)
Ki [16]: 31.6 nM (active)
Ki [17]: 158 nM (active)
Ki [18]: > 6310 nM (inactive)
Ki [19]: > 1580 nM (inactive)
Ki [20]: 25.1 nM (active)
Ki [21]: > 1580 nM (inactive)
Ki [22]: 1580 nM (active)
Ki [23]: > 7940 nM (inactive)
Ki [24]: > 5010 nM (inactive)
Ki [25]: > 2510 nM (inactive)
Ki [26]: > 631 nM (inactive)
Ki [27]: 3160 nM (active)
Ki [28]: 50.1 nM (active)
Ki [30]: > 1580 nM (inactive)
SMILES: CCn1c(-c2nonc2N)nc2cnc(Oc3cccc(NC(=O)c4ccc(OCCN5CCOCC5)cc4)c3)cc21 [GSK-269962A]
Ki [29]: > 10000 nM (inactive)
